Source: patent US6566378B1, “Pesticidal compositions and pesticidal methods” (Sumitomo Chemical Company, Limited, priority 1999, dated 2003)

Key:
Assay type in all cases: in vivo
[1] = test system: Helicoverpa armigera (cotton bollworm); assay: Test Example 2: test for controlling damage by Helicoverpa armigera on potted cabbage; conditions: spray on potted cabbage, five fourth-instar larvae, damage after 7 days
Procedure: (§1) An aqueous dilution of the emulsifiable concentrate and an aqueous dilution of an emulsifiable concentrate, obtained by mixing 10 parts of Compound B or Compound C, 40 parts of xylene, 40 parts of dimethylformamide and 10 parts of Solpol 3005X, were mixed together to make a designated concentration, to which a spreading agent (New Rinou manufactured by Nihon Nohyaku) was added to make a volume of the spreading agent 1/3000. The prepared application solution was sprayed over potted cabbage (at the fourth to fifth leaf stage) at a volume of 40ml per pot. The treated plants were air dried, and then five fourth-instar larvae of Helicoverpa armigera (cotton bollworm) were set free. After 7 days, the damage (%) of the plant was observed. Each controlling ratio (%) was calculated by the following equation based on the damage (%) of non-treated plant.
(§2) Controlling ratio (%)=100×(Damage of non-treated plant−Damage of treated plant)/ Damage of non-treated plant

[2] = test system: Aphis gossypii (cotton aphid); assay: Test Example 3: test for controlling damage by Aphis gossypii on potted cucumber; conditions: spray on potted cucumber, two days after treatment, index near zero shows high controlling effect
Procedure: (§3) Twenty parts of Compound (I) were dissolved in 70 parts of Solvesso 150 (mentioned above), and 6 parts of Toximul 3454F (mentioned above) and 4 parts of Toximul 3455F (mentioned above) were added thereto and mixed well to give an emulsifiable concentrate. An aqueous dilution of the emulsifiable concentrate and an aqueous dilution of a water-soluble formulation of Compound A (commercial name : Mospilan water-soluble formulation produced by Kumiai Chemical Industry) were mixed together to make a designated concentration, to which a spreading agent (New Rinou manufactured by Nihon Nohyaku) was added to make a volume of the spreading agent 1/5000.
(§4) About thirty Aphis gossypii (cotton aphid) in various growth stages were set free on potted cucumber (at the first leaf stage), and then the prepared application solution was sprayed over at a volume of 40ml per pot. The treated plants were air dried, covered for preventing escape of the tested aphids and invasion from the outside and set in a greenhouse (25° C.).
(§5) Corrected indices were calculated by the following equation based on prerecorded parasitic number of tested aphids on the tested plant before treatment and the parasitic number after two days from the treatment.
Corrected index=100×(T2DAT/Tpre)/(C2DAT/Cpre)
T2DAT: Number of the tested aphids on the plant after two days from the treatment […]

[3] = test system: Helicoverpa armigera (cotton bollworm); assay: Test Example 1: test for controlling damage by Helicoverpa armigera on potted cabbage; conditions: spray on potted cabbage, two fourth-instar larvae, damage after 6 days
Procedure: as §1, with “Twenty parts of Compound (I) were dissolved in 70 parts of Solvesso 150 (solvent manufactured by Exxon Chemical), and 6 parts of Toximul 3454F (surfactant manufactured by Stepan) and 4 parts of Toximul 3455F (surfactant manufactured by Stepan) were added thereto and mixed well to give an emulsifiable concentrate. An” for “An”, “a water-soluble formulation” for “an emulsifiable concentrate, obtained by mixing 10 parts”, “A (commercial name: Mospilan water-soluble formulation produced by Kumiai Chemical Industry)” for “B or Compound C, 40 parts of xylene, 40 parts of dimethylformamide and 10 parts of Solpol 3005X,”, “two” for “five”, “6” for “7”
as §2

[4] = test system: Aphis gossypii (cotton aphid); assay: Test Example 4: test for controlling damage by Aphis gossypii on potted cucumber; conditions: spray on potted cucumber, two days after treatment
Procedure: as §3, with “an emulsifiable concentrate, obtained by mixing 10 parts” for “a water-soluble formulation”, “C, 40 parts of xylene, 40 parts of dimethylformamide and 10 parts of Solpol 3005X,” for “A (commercial name : Mospilan water-soluble formulation produced by Kumiai Chemical Industry)”
as §4, §5

FC(F)(F)c1ccc(OCCCOc2c(Cl)cc(OCC=C(Cl)Cl)cc2Cl)nc1 [(I), 3,5-dichloro-1-(3,3-dichloro-2-propenyloxy)-4-[3-(5-trifluoromethylpyridin-2-yloxy)propoxy]benzene]
Controlling ratio (%) ([1]; 2.5 ppm): 20%
Controlling ratio (%) ([1]; 4 ppm): 40%
Corrected index ([2]; 0.5 ppm): 83
Controlling ratio (%) ([3]; 2.5 ppm): 25%
Controlling ratio (%) ([3]; 5.0 ppm): 50%
Corrected index ([4]; 0.5 ppm): 83

C/C(=N\C#N)N(C)Cc1ccc(Cl)nc1 [Compound A, (E)-N^1-[(6-chloro-3-pyridyl)methyl]-N^2-cyano-N^1-methylacetamidine, reference compound]
Corrected index ([2]; 0.125 ppm): 29
Controlling ratio (%) ([3]; 100 ppm): 0%

CN/C(=N\[N+](=O)[O-])NCC1CCOC1 (centres unmarked) [Compound B, 1-[(tetrahydro-3-furanyl)methyl]-2-nitro-3-methylguanidine, reference compound]
Controlling ratio (%) ([1]; 200 ppm): 40%

CN1COCN(Cc2cnc(Cl)s2)/C1=N/[N+](=O)[O-] [Compound C, 3-(2-chlorothiazol-5-ylmethyl)-5-methyl-4-nitroiminoperhydro-1,3,5-oxadiazine, reference compound]
Controlling ratio (%) ([1]; 100 ppm): 0%
Corrected index ([4]; 0.25 ppm): 44
